In assay [1] the target is T1, Peroxisome proliferator-activated receptor gamma (Homo sapiens) (UniProt P37231).
T1 sequence (whole entry): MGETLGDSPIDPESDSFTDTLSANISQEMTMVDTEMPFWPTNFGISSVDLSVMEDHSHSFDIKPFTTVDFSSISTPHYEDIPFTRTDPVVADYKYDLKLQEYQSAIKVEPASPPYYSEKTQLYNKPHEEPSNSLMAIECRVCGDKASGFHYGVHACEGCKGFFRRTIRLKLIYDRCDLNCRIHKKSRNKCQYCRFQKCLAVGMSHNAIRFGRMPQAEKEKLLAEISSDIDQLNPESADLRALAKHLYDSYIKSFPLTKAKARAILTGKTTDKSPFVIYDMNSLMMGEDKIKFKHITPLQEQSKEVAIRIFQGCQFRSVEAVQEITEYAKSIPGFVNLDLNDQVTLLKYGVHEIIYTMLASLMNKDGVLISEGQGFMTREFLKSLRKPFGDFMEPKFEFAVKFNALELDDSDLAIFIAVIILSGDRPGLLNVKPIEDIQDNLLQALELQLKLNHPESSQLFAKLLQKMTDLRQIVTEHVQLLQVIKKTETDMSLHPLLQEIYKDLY
The assay is described as follows: Agonist activity at full length human PPARgamma transfected in rat Ac2F cells cotransfected with PPRE-TK-luc assessed as induction of transactivation activity at 10 ug/ml by luciferase reporter gene assay relative to control. The class given is functional, cell-based.

For assay [2], the target named is T1, Peroxisome proliferator-activated receptor gamma (Homo sapiens). The assay is described as follows: Agonist activity at full length human PPARgamma transfected in rat Ac2F cells cotransfected with PPRE-TK-luc assessed as induction of transactivation activity at 1 ug/ml by luciferase reporter gene assay relative to control. The class given is functional, cell-based.

A short description of assay [3]: Antioxidant activity assessed as radical scavenging activity by NBT reduction assay. The class given is functional.
The subject of assay [4] is Radical scavenging activity. Put plainly: Antioxidant activity assessed as DPPH radical scavenging activity. The class given is functional.

From ChEMBL document CHEMBL2203226, “PPAR-γ agonistic metabolites from the ascidian Herdmania momus” (J Nat Prod, 2012) come the findings set out here.

Values after ≈ are worked out from the molar mass of the structure shown. Active and inactive are the calls of the source. The rule behind the calls is not given here.

With `N[C@H](CCCCNC(=O)C(=O)c1c[nH]c2cc(O)ccc12)C(=O)O`, the result in assay [1] and in assay [2] was Active.
In the case of `O=C(N[C@H](Cc1c[nH]cn1)C(=O)O)C(=O)c1c[nH]c2cc(O)ccc12`, the result in assay [1] and in assay [2] was Active.
Take `N=C(N)NCCC[C@@H](NC(=O)C(=O)c1c[nH]c2cc(O)ccc12)C(=O)O`: the result in assay [1] and in assay [2] was Active.
For `N[C@@H](Cc1ccc(OC(=O)c2ccc(O)cc2)cc1)C(=O)O`, the 50% inhibitory concentration (IC50) in assay [3] worked out at 1.78 µg/mL (≈ 5.91 µM); in assay [4] it was 2.31 µg/mL (≈ 7.67 µM).
